Drawing on ChEMBL document CHEMBL4130439, “Oral Ingestion and Intraventricular Injection of Curcumin Attenuates the Effort-Related Effects of the VMAT-2 Inhibitor Tetrabenazine: Implications for Motivational Symptoms of Depression” (2017), this text covers inhibition and Ratio for one molecule.

Calls of active or inactive are those of the source. No cut-off for these calls is given here.

Experiment [1] concerns Rattus norvegicus. Put plainly: Inhibition of effort-related effects of TBZ in Harlan Sprague Dawley rat assessed as decrease in TBZ-induced chow intake at 160 mg/kg, po administered 3 hrs prior to testing followed by coadministration with TBZ at 90 mins prior to testing measured for 30 mins. It is filed as functional, organism-based.
In experiment [2] the test system is Rattus norvegicus. Put plainly: Inhibition of effort-related effects of TBZ in 90 mins TBZ pretreated Harlan Sprague Dawley rat assessed as increase in TBZ-induced lever presses at 4 to 8 microg, icv administered via chronic indwelling cannulae 20 mins prior to testing measured for 30 mins. Format: functional, organism-based.
Experiment [3] concerns Rattus norvegicus. Kind of experiment: Inhibition of effort-related effects of TBZ in Harlan Sprague Dawley rat assessed as decrease in TBZ-induced chow intake at 80 to 160 mg/kg, po administered 2 hrs prior to testing followed by TBZ addition at 90 mins prior to testing measured for 30 mins. It is filed as functional, organism-based.
Experiment [4] has as its system Rattus norvegicus. Kind of experiment: Ratio of compound effect for TBZ-induced chow intake in icv administered Harlan Sprague Dawley rat to compound effect for TBZ-induced chow intake in orally administered Harlan Sprague Dawley rat. Format: functional.
Experiment [5] deals with Rattus norvegicus. Kind of experiment: Inhibition of effort-related effects of TBZ in Harlan Sprague Dawley rat assessed as increase in TBZ-induced lever presses at 80 to 160 mg/kg, po administered 2 hrs prior to testing followed by TBZ addition at 90 mins prior to testing measured for 30 mins. It is filed as functional, organism-based.
Experiment [6] deals with Rattus norvegicus. Kind of experiment: Inhibition of effort-related effects of TBZ in Harlan Sprague Dawley rat assessed as increase in TBZ-induced lever presses at 160 mg/kg, po administered 3 hrs prior to testing followed by coadministration with TBZ at 90 mins prior to testing measured for 30 mins. Format: functional, organism-based.
The subject of experiment [7] is Rattus norvegicus. Put plainly: Ratio of compound effect for TBZ-induced lever presses in icv administered Harlan Sprague Dawley rat to compound effect for TBZ-induced lever presses in orally administered Harlan Sprague Dawley rat. Format: functional.
In experiment [8] the test system is Rattus norvegicus. Put plainly: Inhibition of effort-related effects of TBZ in 90 mins TBZ pretreated Harlan Sprague Dawley rat assessed as decrease in TBZ-induced chow intake at 4 to 8 microg, icv administered via chronic indwelling cannulae 20 mins prior to testing measured for 30 mins. It is filed as functional, organism-based.

On to `COc1cc(/C=C/C(=O)CC(=O)/C=C/c2ccc(O)c(OC)c2)ccc1O` [CURCUMIN], for which the inhibition entry in the experiment on Rattus norvegicus [1], in the experiment with Rattus norvegicus [2], with Rattus norvegicus [6] and with Rattus norvegicus [8] was “Active” throughout. The inhibition entry with Rattus norvegicus [3] and in the experiment with Rattus norvegicus [5] was “inactive” in each case. Also, the Ratio in the experiment on Rattus norvegicus [4] and in the experiment with Rattus norvegicus [7] was greater than 1000 throughout.
